Laboratory results as given in patent publication US20220249511A1, “METHODS FOR THE TREATMENT OF KELOID, HYPERTROPHIC SCARS AND/OR HYPERPIGMENTATION DISORDERS” (INSERM (INSTITUT NATIONAL DE LA SANTÉ ET DE LA RECHERCHE …, priority 2019, published 2022).

Tests used:
[1] = tested on: hypertrophic and keloids scars; test: Cohort of PROS patients treated with oral BYL719: hypertrophic and keloid scars; type: in vivo, human; conditions: daily dose of 250 mg in adults or 50 mg in children, FIG. 1
Description: (§1) The cohort is composed by 19 patients including 15 children (ranging from 4 to 50 years old). Children received 50 mg daily while adults received 250 mg daily. BYL719 was delivered orally every morning with breakfast. Patients were followed at regular intervals:
(§2) weekly for 8 weeks, every two weeks for 1 month and then monthly. All patients underwent clinical examination, and areas of overgrowth, nevi as well as visible scars were photographed before and after BYL719 introduction. All pictures were taken by a single operator, always using the same camera (12-megapixel camera), in the same room and at the same distance. […] Length and surface of the scars were measured using Image J.

nevi = test: Cohort of PROS patients treated with oral BYL719: nevus color (visual scale); type: in vivo, human; conditions: arbitrary visual scale 5: dark color to 1: normal skin color, FIG. 1
Description: as §1, §2
As shown on FIG. 1, inventors have observed that during treatment with oral BYL719, the length, the area and the thickness of the different scars were dramatically reducing without additional treatment. […] Nevus color was evaluated using an arbitrary visual scale ranging from (5: dark color to 1: normal skin color).

burn scar = test: PROS patient treated with oral BYL719: burn scar; type: in vivo, human; conditions: one PROS patient with a large burn scar on the left thigh, FIG. 2
Description: as §1, §2

AKT/mTOR pathway [2] = test: Western blot of P-AKT and P-S6RP in primary fibroblasts derived from pathological scars; type: cell-based, human; conditions: starved 12 hours, exposed 24 h, vs DMSO, FIG. 3A
Description: (§3) Skin samples (hypertrophic, keloids and burn scars) were collected during surgical procedures. To generate dermal fibroblast cultures, skin samples were minced and incubated at room temperature in 0.05% trypsin-EDTA (ThermoFisher) solution for 30 min with gentle shaking. Cells were collected by centrifuging at 700 g for 10 min, resuspended in cell culture media containing 25% FBS, and plated onto 24 well plates to establish lines. Fibroblast cultures were grown and maintained in 1× MEM (Corning) supplemented with 25% FBS and penicillin/streptomycin (Corning) to a final concentration of 100 IU penicillin and 500 μg.mL-1 streptomycin.
(§4) Cells at similar population doubling were plated 1:4 from confluent cultures and allowed to grow until ˜80% confluent. Cells were then starved during 12 hours and exposed during 24 h to either BYL719 (0.1 or 1 μmol.L-1; MedChem Express), taselisib (0.1 or 2. μmol.L-1; MedChem Express) or miransertib (0.1 or […]) or equal volume of DMSO. We also performed ex vivo keloid scars culture. Keloids were exposed during 24h to either BYL719 (0.1 or 1 μmol.L-1; MedChem Express) or equal volume of DMSO.
Cultures were rinsed with 1X PBS, treated for 10 min with 0.05% Trypsin, collected by centrifugation at 4° C., and pellets were flash frozen on dry ice. Protein lysates were collected by directly adding 1× RIPA buffer containing protease and phosphatase inhibitors. Each experiment was performed in duplicate and repeated at least three times
Western blots were performed as previously described^31. Briefly, protein extracts from the scars and primary culture of fibroblasts were resolved by SDS-PAGE before being transferred onto the appropriate membrane and incubated with anti-P-AKT (Ser473) antibody (Cell Signaling Technology, ref# 4060), anti-P-S6RP antibody (Cell Signaling Technology, ref# 5364) and anti-GAPDH (Merck Millipore, ref#374), followed by the appropriate peroxidase-conjugated secondary antibody. […]

[3] = tested on: primary fibroblasts derived from pathological scars; test: Proliferation of primary fibroblasts derived from pathological scars; type: cell-based, human; conditions: exposed 24 h, vs DMSO, FIG. 3B
Description: (§5) Paraffin-embedded kidney sections (4-um) were incubated with anti-P-AKT (Ser473) antibody (Cell Signaling Technology, ref# 4060), anti-P-S6RP antibody (Cell Signaling Technology, ref# 5364), anti-a-smooth muscle cell antibody (Sigma Aldrich, ref# A5228), and anti-KI67 antibody (Thermo Fisher Scientific, ref# RM-9106-51) Immunofluorescence studies were analyzed using a Zeiss LSM 700 confocal microscope.
as §3, §4

Tgfβ mRNA [4] = test: Tgfβ mRNA expression in primary fibroblasts derived from pathological scars; type: cell-based, human; conditions: exposed 24 h, vs DMSO, FIG. 3C
Description: as §3, §4
(§6) Total RNA was isolated from snap-frozen kidneys using the TRIzol reagent (Sigma) according to the manufacture's protocol. First-strand cDNA was synthesized using the MML-V reverse transcriptase (Promega, USA). Real-time PCR was performed using the iQ-SYBR Green supermix (BioRad) and the iQ5 Multicolor Real-Time PCR Detection System (BioRad) for mRNA detection. 18S rRNA was used as a house keeping gene.

AKT/mTOR pathway [5] = test: Western blot of ex vivo keloid scars culture; type: cell-based, human; conditions: ex vivo keloids exposed 24h to 0.1 or 1 μmol.L-1, vs DMSO; FIG. 3D
Description: as §4
Western blots were performed as previously described^31. Briefly, protein extracts from the scars and primary culture of fibroblasts were resolved by SDS-PAGE before being transferred onto the appropriate membrane and incubated with anti-P-AKT (Ser473) antibody (Cell Signaling Technology, ref# 4060), anti-P-S6RP antibody (Cell Signaling Technology, ref# 5364) and anti-GAPDH (Merck Millipore, ref#374), followed by the appropriate peroxidase-conjugated secondary antibody. Chemiluminescence was acquired using a Fusion FX7 camera (Vilbert Lourmat) and densitometry was performed using the Bio1D software (Certain Tech).

keloids = test: Proliferation rate in ex vivo keloid scars culture; type: cell-based, human; conditions: ex vivo keloids exposed 24h to 0.1 or 1 μmol.L-1, vs DMSO; FIG. 3E
Description: as §5, §4

Tgfβ mRNA [6] = test: Tgfβ mRNA expression in ex vivo keloid scars culture; type: cell-based, human; conditions: ex vivo keloids exposed 24h to 0.1 or 1 μmol.L-1, vs DMSO; FIG. 3F
Description: as §4, §6

SMILES	length of the hypertrophic and keloids scars [1]	surface area of the hypertrophic and keloids scars [1]	thickness of the hypertrophic and keloids scars [1]	nevus color (nevi)	size of the burn scar (burn scar)	AKT/mTOR pathway (P-AKT and P-S6RP in WB) (AKT/mTOR pathway [2])	proliferation [3]	mRNA expression of Tgfβ, a marker of fibrosis (Tgfβ mRNA [4])	AKT/mTOR pathway (Western blot) (AKT/mTOR pathway [5])	proliferation rate (keloids)	Tgfβ mRNA expression (Tgfβ mRNA [6])
Cc1nc(NC(=O)N2CCC[C@H]2C(N)=O)sc1-c1ccnc(C(C)(C)C(F)(F)F)c1 [BYL719, Alpelisib]	progressive improvement	progressive improvement	progressive improvement	spontaneously decolorating	reduction in size	efficiently block	reduced	reduced	inhibits	reduce	reduce
Nc1ncccc1-c1nc2ccc(-c3ccccc3)nc2n1-c1ccc(C2(N)CCC2)cc1 [miransertib, Miransertib]						efficiently block	reduced	reduced			
Cc1nc(-c2cn3c(n2)-c2ccc(-c4cnn(C(C)(C)C(N)=O)c4)cc2OCC3)n(C(C)C)n1 [taselisib, Taselisib]						efficiently block	reduced	reduced			
